Results on 16 molecules are retold here after ChEMBL document CHEMBL1201862, “PubChem BioAssay data set” (2004).

Assay [1] concerns the target Endoplasmic reticulum aminopeptidase 1 (Homo sapiens, UniProt Q9NZ08). The experiment in a line: ERAP1 aminopeptidase inhibitors, dose response, biochemical, cherry-pick, set 2, plate reader (AID 743314).
Assay [2] concerns the target Beta-galactosidase (Escherichia coli, UniProt Q8VNN2). Briefly: Dose response counterscreen for EBI2 assay utilizing the enzyme, b-galactosidase. It is filed as functional.
A short description of assay [3]: inhibitors of Vif binding to APOBEC3G peptide, primary screen, biochemical, TR-FRET, GST-Vif 1-94, biotin-A3G peptide, dose response retest (AID 1117319).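 Further: TR-FRET signal of purified GST-Vif binding a biotinylated A3G peptide; inhibitors lower the FRET signal by blocking Vif and A3G binding.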 It is filed as functional.
Assay [4] addresses Mitogen-activated protein kinase 10 (Homo sapiens, UniProt P53779). The experiment in a line: Dose response biochemical screening assay for inhibitors of c-Jun N-Terminal Kinase 3 (JNK3). [Related pubchem assays: 746 ].
Assay [5] addresses Prothrombin (Homo sapiens, UniProt P00734). The experiment in a line: Thrombin 1536 HTS Dose Response Confirmation. [Related pubchem assays: 1046 (Thrombin 1536 HTS; hits were confirmed in this assay)]. It is filed as functional.
The target in assay [6] is Nonstructural protein 1 (Influenza A virus, UniProt Q194T2). It is filed as functional, Influenza A virus (A/California/07/2009(H1N1)).
Chain of Nonstructural protein 1 (Q194T2 whole entry): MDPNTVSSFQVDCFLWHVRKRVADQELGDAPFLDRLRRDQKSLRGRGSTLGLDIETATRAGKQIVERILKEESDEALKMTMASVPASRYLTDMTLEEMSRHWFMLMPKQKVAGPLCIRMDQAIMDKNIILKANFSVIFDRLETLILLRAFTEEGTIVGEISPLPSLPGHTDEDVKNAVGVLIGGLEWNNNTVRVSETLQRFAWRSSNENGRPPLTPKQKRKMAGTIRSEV
The target of assay [7] is T1, Histone-lysine N-methyltransferase NSD2 (Homo sapiens, UniProt O96028).
T1 sequence (O96028 whole entry): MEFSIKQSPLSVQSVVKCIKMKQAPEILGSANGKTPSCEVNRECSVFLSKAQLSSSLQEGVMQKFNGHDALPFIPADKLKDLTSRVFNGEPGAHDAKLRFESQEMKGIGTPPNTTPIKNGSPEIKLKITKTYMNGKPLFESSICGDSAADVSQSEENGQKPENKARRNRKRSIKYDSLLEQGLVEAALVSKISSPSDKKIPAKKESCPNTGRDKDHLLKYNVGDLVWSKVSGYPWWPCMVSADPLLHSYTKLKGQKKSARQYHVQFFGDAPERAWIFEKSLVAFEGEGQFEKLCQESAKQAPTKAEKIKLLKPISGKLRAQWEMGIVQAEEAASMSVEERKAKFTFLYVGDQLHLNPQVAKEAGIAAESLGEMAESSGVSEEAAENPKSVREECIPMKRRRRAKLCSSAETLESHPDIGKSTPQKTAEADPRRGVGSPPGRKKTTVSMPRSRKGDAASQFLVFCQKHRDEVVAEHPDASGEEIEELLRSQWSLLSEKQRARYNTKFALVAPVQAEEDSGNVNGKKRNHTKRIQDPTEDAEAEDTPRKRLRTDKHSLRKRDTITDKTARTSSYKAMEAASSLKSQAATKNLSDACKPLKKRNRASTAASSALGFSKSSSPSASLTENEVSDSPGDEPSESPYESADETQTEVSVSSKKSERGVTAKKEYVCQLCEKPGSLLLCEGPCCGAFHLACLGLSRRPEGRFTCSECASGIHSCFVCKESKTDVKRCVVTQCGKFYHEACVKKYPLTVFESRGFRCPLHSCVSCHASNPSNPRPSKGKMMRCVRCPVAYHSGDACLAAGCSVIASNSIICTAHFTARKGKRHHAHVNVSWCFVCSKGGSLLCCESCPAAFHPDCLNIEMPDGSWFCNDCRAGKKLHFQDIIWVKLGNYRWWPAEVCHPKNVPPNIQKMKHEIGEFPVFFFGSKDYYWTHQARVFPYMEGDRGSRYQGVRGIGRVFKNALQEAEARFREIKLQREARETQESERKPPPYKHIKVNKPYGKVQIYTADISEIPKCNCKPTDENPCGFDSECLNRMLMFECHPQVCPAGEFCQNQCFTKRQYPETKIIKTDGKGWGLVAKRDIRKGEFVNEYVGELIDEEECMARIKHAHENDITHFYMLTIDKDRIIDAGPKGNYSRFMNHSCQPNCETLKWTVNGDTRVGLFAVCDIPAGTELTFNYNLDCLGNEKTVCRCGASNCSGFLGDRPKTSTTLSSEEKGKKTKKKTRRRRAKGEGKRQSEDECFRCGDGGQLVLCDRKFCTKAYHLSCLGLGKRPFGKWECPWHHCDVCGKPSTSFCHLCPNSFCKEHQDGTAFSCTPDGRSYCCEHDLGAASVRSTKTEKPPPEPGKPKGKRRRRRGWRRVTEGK
It is filed as biochemical.

Assay [8] is described as follows: HEK293T cytotoxicity, dose response, cytotoxicity control for miR-122 modulator project, cell-based, inhibitor set, cherry-pick, set 2 (AID 720697). It is filed as functional.
Assay [9] concerns the target T2, Corticotropin-releasing factor receptor 2/Corticotropin-releasing factor-binding protein (Homo sapiens, UniProt P24387+Q13324).
T2 sequence (Q13324 whole entry): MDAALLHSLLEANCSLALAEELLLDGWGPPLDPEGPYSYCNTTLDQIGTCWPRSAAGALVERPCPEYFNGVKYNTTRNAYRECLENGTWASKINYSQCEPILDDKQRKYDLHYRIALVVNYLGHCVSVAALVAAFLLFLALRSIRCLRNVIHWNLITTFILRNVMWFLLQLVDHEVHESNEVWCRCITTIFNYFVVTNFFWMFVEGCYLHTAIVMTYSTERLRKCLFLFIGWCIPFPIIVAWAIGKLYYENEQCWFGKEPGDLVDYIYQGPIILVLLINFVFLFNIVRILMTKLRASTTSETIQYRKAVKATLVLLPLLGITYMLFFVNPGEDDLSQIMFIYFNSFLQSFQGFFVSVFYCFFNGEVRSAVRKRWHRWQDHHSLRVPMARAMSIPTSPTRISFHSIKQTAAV
T2 sequence (P24387 whole entry): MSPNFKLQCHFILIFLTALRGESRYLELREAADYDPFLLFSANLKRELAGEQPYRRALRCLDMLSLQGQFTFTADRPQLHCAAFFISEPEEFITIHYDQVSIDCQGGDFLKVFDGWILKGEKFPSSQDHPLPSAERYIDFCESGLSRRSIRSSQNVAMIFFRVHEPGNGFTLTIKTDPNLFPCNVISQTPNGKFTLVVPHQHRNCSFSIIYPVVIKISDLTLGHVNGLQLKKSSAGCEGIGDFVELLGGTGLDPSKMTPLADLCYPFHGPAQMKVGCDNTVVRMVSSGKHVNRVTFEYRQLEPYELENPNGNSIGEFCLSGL
The experiment in a line: activators of CRF receptor 2 with binding protein – uHTS hits, confirmation (AID 602473). It is filed as functional. Particulars: read-out: EC50_Mean.

Assay [10] has as its target T3, Long-chain-fatty-acid--AMP ligase FadD28 (Mycobacterium tuberculosis, UniProt P9WQ59).
T3 sequence (P9WQ59 whole entry): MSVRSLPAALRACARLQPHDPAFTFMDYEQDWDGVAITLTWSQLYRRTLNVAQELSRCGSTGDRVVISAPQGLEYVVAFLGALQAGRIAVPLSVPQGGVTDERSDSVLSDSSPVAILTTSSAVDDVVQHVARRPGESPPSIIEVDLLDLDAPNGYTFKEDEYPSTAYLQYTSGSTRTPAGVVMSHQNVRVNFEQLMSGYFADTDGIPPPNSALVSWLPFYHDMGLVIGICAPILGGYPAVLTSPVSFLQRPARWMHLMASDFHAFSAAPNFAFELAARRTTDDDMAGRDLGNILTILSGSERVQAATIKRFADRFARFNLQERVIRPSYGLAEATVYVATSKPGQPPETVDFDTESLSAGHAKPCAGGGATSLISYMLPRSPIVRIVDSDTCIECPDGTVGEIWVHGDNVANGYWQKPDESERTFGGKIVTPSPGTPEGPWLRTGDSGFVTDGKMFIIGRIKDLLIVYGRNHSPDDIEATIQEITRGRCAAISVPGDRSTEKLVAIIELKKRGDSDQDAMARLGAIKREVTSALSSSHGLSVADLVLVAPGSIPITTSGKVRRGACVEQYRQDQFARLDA
Briefly: Fluorescence polarization aasay to screen for inhibitors that compete for the binding of FadD28 to a bisubstrate Measured in Biochemical System Using Plate Reader - 2147-01_Inhibitor_Dose_CherryPick_Activity. It is filed as functional, Mycobacterium tuberculosis H37Rv.

Assay [11] deals with Streptococcus. The experiment in a line: Group A Streptococcus viability loss, dose response, counter-screen for streptokinase expression inhibitor project, luminescence, BacTiterGlo (AID 1915).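 Further: potency for reduction of bacterial viability or growth.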 It is filed as functional, organism-based.
Assay [12] deals with Streptococcus sp. 'group A'. The experiment in a line: growth inhibition of control SK(-) GAS strain, dose response, counter-screen for streptokinase expression inhibitor project, luminescence, kanamycin, BacTiterGlo, confirmation (AID 1900). It is filed as functional, organism-based. (The purpose of a counterscreen is to sort out artefacts and off-target activity.)
Assay [13] has as its target T4, Streptokinase A (Streptococcus pyogenes serotype M1, UniProt P10520).
T4 sequence (P10520 whole entry): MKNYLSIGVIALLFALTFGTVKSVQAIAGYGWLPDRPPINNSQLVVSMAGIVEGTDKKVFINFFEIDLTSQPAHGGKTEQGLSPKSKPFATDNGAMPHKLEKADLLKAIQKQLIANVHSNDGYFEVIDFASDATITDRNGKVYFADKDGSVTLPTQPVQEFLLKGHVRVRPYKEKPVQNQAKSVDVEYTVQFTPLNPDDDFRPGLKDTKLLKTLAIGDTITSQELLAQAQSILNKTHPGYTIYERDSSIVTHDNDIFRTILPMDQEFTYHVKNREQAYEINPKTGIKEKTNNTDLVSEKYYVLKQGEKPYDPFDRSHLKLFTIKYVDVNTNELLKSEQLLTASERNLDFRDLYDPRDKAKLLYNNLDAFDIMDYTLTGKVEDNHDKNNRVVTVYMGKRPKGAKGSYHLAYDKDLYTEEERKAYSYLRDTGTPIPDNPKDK
Briefly: S. pyogenes streptokinase expression inhibitors, potency, dose response, plasminogen activation absorbance, OD405 (AID 1914).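 Further: secreted streptokinase activity via plasminogen activation per viability signal from cell pellet.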 It is filed as functional, Streptococcus pyogenes M1 GAS.

For assay [14], the target named is T5, Estrogen receptor beta (Homo sapiens, UniProt Q92731).
T5 sequence (Q92731 whole entry): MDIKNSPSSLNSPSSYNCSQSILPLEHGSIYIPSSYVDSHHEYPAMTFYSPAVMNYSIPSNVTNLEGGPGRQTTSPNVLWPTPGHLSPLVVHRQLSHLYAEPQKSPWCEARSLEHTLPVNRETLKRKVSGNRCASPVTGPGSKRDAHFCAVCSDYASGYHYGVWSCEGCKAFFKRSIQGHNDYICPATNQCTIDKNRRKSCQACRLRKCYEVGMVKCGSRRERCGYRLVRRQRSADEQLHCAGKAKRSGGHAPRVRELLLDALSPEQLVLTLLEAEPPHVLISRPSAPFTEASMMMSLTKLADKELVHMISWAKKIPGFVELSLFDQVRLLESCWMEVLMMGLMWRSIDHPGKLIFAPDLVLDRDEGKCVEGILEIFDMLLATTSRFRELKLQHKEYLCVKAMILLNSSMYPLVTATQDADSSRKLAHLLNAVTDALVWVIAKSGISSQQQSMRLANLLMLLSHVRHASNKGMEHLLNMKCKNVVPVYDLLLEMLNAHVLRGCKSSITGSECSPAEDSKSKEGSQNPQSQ
The target in assay [15] is T5, Estrogen receptor beta. Briefly: ERβ–SRC-3 coactivator interaction inhibitors, confirmation, orthogonal assay, biochemical, ELISA, streptavidin-HRP readout (AID 1060).

Each structure is given as a SMILES string. Calls of active or inactive are those of the source.

Chain of Beta-galactosidase (Q8VNN2 whole entry): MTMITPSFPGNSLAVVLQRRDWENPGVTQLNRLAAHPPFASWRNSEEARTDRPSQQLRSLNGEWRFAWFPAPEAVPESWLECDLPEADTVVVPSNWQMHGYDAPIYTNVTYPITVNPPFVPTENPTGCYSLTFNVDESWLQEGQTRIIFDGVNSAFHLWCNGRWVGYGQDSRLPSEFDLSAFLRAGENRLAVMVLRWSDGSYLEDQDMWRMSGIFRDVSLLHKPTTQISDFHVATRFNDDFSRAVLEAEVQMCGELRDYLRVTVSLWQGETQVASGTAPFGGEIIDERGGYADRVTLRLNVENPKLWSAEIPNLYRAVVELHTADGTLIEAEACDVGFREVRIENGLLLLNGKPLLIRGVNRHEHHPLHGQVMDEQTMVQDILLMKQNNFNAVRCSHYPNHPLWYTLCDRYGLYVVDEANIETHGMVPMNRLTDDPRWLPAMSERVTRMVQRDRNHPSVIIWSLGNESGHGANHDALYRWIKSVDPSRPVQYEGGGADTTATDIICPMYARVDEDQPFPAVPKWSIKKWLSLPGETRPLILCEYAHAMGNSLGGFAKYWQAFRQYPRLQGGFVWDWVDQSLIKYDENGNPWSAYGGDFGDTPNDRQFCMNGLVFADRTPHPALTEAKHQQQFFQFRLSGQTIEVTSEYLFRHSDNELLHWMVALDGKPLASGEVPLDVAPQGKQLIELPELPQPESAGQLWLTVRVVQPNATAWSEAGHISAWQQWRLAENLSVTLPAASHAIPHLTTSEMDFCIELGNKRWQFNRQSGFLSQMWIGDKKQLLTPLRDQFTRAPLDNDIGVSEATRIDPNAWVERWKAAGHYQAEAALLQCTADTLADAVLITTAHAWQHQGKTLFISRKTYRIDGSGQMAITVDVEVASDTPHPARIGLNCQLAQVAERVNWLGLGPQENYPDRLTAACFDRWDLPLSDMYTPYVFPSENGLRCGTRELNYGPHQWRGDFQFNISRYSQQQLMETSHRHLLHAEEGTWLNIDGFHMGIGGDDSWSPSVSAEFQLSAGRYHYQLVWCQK
Chain of Endoplasmic reticulum aminopeptidase 1 (Q9NZ08 whole entry): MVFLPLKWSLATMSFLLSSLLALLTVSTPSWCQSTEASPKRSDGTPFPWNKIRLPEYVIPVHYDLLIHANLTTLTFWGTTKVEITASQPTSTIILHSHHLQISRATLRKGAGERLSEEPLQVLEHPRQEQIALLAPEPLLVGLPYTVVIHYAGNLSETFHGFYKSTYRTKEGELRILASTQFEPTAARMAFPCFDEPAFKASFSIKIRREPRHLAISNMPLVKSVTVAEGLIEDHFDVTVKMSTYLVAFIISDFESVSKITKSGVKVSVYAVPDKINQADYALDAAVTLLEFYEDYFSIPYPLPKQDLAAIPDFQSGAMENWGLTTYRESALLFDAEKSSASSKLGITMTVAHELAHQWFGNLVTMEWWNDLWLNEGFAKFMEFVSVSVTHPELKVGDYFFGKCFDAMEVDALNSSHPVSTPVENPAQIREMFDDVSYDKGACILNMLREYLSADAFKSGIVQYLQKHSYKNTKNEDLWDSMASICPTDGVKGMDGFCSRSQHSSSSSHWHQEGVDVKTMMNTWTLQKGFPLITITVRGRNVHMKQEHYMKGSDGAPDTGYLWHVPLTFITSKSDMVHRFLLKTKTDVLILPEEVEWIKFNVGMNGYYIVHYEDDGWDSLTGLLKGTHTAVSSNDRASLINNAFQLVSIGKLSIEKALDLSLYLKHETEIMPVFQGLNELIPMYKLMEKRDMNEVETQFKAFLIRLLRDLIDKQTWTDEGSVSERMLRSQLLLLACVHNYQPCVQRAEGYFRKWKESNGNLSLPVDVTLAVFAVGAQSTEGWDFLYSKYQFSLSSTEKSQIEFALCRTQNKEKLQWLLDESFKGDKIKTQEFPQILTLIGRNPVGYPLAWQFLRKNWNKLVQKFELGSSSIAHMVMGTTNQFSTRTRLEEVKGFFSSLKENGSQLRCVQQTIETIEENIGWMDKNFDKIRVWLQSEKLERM
Chain of Mitogen-activated protein kinase 10 (P53779 whole entry): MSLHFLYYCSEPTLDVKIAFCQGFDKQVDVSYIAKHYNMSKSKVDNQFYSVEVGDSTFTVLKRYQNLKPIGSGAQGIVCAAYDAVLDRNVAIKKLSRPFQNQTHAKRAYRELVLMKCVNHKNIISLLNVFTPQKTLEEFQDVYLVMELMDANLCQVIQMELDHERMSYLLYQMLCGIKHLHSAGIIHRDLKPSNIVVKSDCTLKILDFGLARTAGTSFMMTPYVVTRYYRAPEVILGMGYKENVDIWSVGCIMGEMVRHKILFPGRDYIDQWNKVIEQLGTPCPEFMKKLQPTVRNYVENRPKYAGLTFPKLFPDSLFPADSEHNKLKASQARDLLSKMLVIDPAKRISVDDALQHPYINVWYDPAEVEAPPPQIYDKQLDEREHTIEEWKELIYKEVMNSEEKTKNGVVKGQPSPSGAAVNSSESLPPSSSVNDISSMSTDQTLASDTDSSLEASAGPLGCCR

Turning to `COc1cccc(CNC(=O)[C@H]2N[C@H]3c4ccc(/C=C/c5ccccc5)c(=O)n4C[C@H]3[C@@H]2CO)c1`, the AC50 (as a rule, the concentration at which the activity in the assay is half-maximal) in assay [1] is 16.2 µM (active). Take `Cc1cc(C)c2cc(C(=O)N3CCC(C(=O)c4ccc(F)cc4)CC3)[nH]c2c1`: the IC50 – broadly, the midpoint of a concentration-inhibition curve – in [2] is > 80 µM (inactive). With `CCN1[C@H](C(=O)Nc2nccs2)[C@@H](CO)[C@@H]2Cn3c(ccc(/C=C/c4ccccc4)c3=O)[C@@H]21`, the AC50 in assay [1] was 19 µM (active). Turning to `O=C(CN1C(=O)CSC1=O)Nc1ccccc1N1CCOCC1`, in [3], the IC50 is > 100 µM (active). As to `O=C(NCc1nc2ncc(Br)cc2[nH]1)c1ccccc1`, the IC50 in assay [4] was 38.3 µM (not active). In the case of `O=C(Nc1ccccc1N1CCOCC1)c1ccc2[nH]cnc2c1`, the IC50 in assay [5] was 6.87 µM (active). For the molecule `O=[N+]([O-])c1ccccc1/C=C\C=N\N1CCN(c2ccccc2)CC1`, in assay [6], the IC50 was 59.2 µM (active). In addition, in [7], the AC50 was > 20 µM (inactive). `Cc1ccnc(NC(=O)C2CCCN(S(=O)(=O)c3c[nH]cn3)C2)c1` (stereo not drawn): in assay [5], the IC50 is > 50 µM (not active). Consider `Cc1ccc(Cl)cc1N1CCN(C(=O)c2cc3c(O)nc4ccccc4c3n2C)CC1`, for which the IC50 in [2] was > 80 µM (inactive). Regarding `FC(F)(F)c1ccc(Oc2ccc3cc(Br)ccc3c2)nc1`, in [2], the IC50 was > 80 µM (inactive).

As for `COCC(=O)Nc1sc2c(c1C(=O)OC)C(C(=O)OC)CC2` (stereo not drawn), the IC50 in [3] was > 100 µM (active). In the case of `Cc1ccc2oc(=O)c3cnn(CC(=O)N4CCN(c5ccccn5)CC4)c3c2c1`, the IC50 in [4] is > 93.1 µM (not active). Turning to `O=C(c1ccc(N2CCCCC2)c([N+](=O)[O-])c1)N(c1ccccn1)c1ccccn1`, the IC50 in [5] is > 50 µM (not active). Turning to `C[C@@H]1CN([C@@H](C)CO)S(=O)(=O)c2ccc(C3=CCCCC3)cc2O[C@@H]1CN(C)C(=O)Nc1ccc2c(c1)OCO2`, the AC50 in assay [8] is 0.502 µM (active). As for `O=c1oc2c(CN3CCN(CCO)CC3)c(O)ccc2cc1-c1ccccn1`, in assay [9], the EC50 is 6.05 µM (active). Further, in assay [1], the AC50 was 1.46 µM (active).

Turning to `CCOC(=O)c1c(NS(=O)(=O)c2ccc(Br)cc2)sc2c1CCC2`, the AC50 in assay [10] was > 100 µM (inactive). Besides, the EC50 in assay [11] was 4.07 µM (active); in assay [12], 2.1 µM (active); in assay [13], > 150 µM (not active). Further, the IC50 in [14] and in assay [15] was > 50 µM (not active) each time.
